Where no end group is shown, it is not given here.
Experiments:
[1] = test system: human HaCat keratinocyte cell line; assay: IL-8 ELISA on culture supernatant of HaCat; format: cell-based; details: HaCat stimulated with 3.6 μM hepcidin; n ≥ 3 per group
[2] = test system: human 3D organotypic skin model; assay: IL-8 ELISA on culture supernatant of human 3D organotypic skin model; format: cell-based; details: human 3D skin equivalent model stimulated with 3.6 μM hepcidin; n ≥ 3 per group
[3] = test system: murine primary keratinocytes; assay: Cytokines in culture supernatant of murine primary keratinocytes (V-PLEX Proinflammatory Panel1 / CXCL1 ELISA); format: cell-based, mouse
[4] = test system: GAS; assay: Therapeutic treatment in GAS-induced necrotizing fasciitis mouse model; format: in vivo, mouse (C57BL6)
[5] = test system: SpyCEP; details: incubated overnight with purified SpyCEP or PBS; mass spectrometry read-out; CXCL1 fragments of 5.9 kDa and 1.3 kDa
[6] = molecular target: SpeB (Streptococcus pyogenes, UniProt P0C0J0)
[7] = test system: GAS; assay: Rescue experiment: CXCL1 injection into GAS-infected Hamp1Δker mice; details: 1 µg/mouse rCXCL1 s.c. with infection and intralesionally at 24, 48 and 72 h, n ≥ 4 per group
Description: (G) Bacterial count in the skin of Hamp1^lox/lox and Hamp1Δ^ker mice injected daily with CXCL1 or PBS; n ≥ 4 per group.
were performed in a C57BL6 background, using 8-12 week old male littermates.
Mouse model of GAS infection
A well-established model of necrotizing soft tissue infection was adapted for this study (3, 4).
In brief, Hamp1lox/lox and Hamp1Δker mice male littermates were subcutaneously injected with
107 c.f.u. of M1T1 5448 GAS. Weight loss and lesion size of mice were estimated daily. After
96 hours, mice were sacrificed and skin necrotic ulcers, spleen, and blood (via retro orbital
bleeding) were recovered and homogenized in sterile PBS. Serial dilutions of tissue
homogenate were spread on THA plates to enumerate bacterial colony forming units (c.f.u.).
For the rescue experiment, Hamp1lox/lox and Hamp1Δker littermates were subcutaneously
infected with 107 c.f.u. of GAS with PBS or 1 µg/mouse of recombinant CXCL1 (rCXCL1;
R&D system, 1395-KC-025/CF). Mice were intralesionally injected again at 24, 48 and 72 h
with PBS or 1 µg of rCXCL1.

In the case of “human hepcidin (DTHFPICIFCCGCCHRSKCGMCCKT; ends and bridges not checked; cysteine pairing not given here; UniProt P81172 60-84, looked up) [human hepcidin used to stimulate HaCat and human 3D organotypic skin model]”, the “production of IL-8” value [1] is reported as “induce the production of IL-8” and the “production of IL-8” value [2] is reported as “induce the production of IL-8”.

For “hepcidin (DTNFPICIFCCKCCNNSQCGICCKT; ends and bridges not checked; cysteine pairing not given here; UniProt Q9EQ21 59-83, looked up)”, the “CXCL1 in culture supernatant” value ([3]; murine primary keratinocytes incubated with 0.36 μM and 3.6 μM synthetic hepcidin for 1 or 3 hours, V-PLEX cytoplex, n = 3 per group) was “dose-dependent increase”, the “CXCL1 induction measured by ELISA” value ([3]; murine primary keratinocytes, 3.6 uM hepcidin, 1 or 3 hours, N=3 per group (Supplemental Figure 5)) was “confirmed by ELISA” and the “bacterial dissemination in CXCL1–/– mice” value ([4]; CXCL1–/– mice, hepcidin treatment (Supplemental Figure 8)) was “did not prevent bacterial dissemination”. For the same molecule, the weight variation ([4]; WT mice, s.c. 1 μg hepcidin 24 h after GAS infection, then 500 ng at 48 and 72 h, 4 days, n = 9) was “recovered their initial weight”, the “mice with absolutely no bacterial dissemination (bacterial count in spleen)” value ([4]; WT mice, s.c. 1 μg hepcidin 24 h after GAS infection, then 500 ng at 48 and 72 h, spleen c.f.u. at 96 hours, n = 9, all control mice disseminated) was 7 of the 9 and the “signs of systemic disease” value ([4]; WT mice, s.c. 1 μg hepcidin 24 h after GAS infection, then 500 ng at 48 and 72 h, vs PBS (weight loss, rough hair coat, hunched posture), n = 9) was “did not present any signs of systemic disease”. For the same molecule, the neutrophil recruitment ([4]; WT mice, s.c. 1 μg hepcidin at inoculation site 24 h after GAS infection, then 500 ng at 48 and 72 h, n = 6 per group) was “increase in neutrophil recruitment”, the “cleavage by SpyCEP” value [5] was “not cleaved” and the “cleavage by SpeB” value [6] was “not cleaved”.

With Ferric Ammonium Citrate [iron] the “CXCL1 production (ELISA)” value ([3]; murine primary keratinocytes stimulated 3 hours with 500 μM ferric ammonium citrate (FAC), n = 3 per group) was “stimulated CXCL1 production”.

B1: CXCL1 (protein, UniProt P12850 25-96, looked up)
Growth-regulated alpha protein: APIANELRCQCLQTMAGIHLKNIQSLKVLPSGPHCTQTEVIATLKNGREACLDPEAPLVQKIVQKMLKGVPK
For B1, the “cleavage by SpyCEP” value [5] was “cleaved” and the “bacterial count in the skin lesion” value [7] was “significantly decreased the number of bacteria”.
